Reference: patent US8765716B2, “Pharmaceutical composition containing docetaxel-cyclodextrin inclusion complex and its preparing process” (Meridian Laboratories, Inc., priority 2006, dated 2014)
Read-outs that look alike come from different tables or passages of the source.

Assays:
[1] = Solid inclusion stability, 5-day acceleration test (light, high temperature, high humidity), HPLC content; assay type: physicochemical
Procedure: (§1) HPLC chromatographic conditions: chromatographic column ODS Cig (250 mm×4.6 mm); mobile phase: water:acetonitrile (53:47); flow rate: 1.0 ml/min; detection wavelength: 230 nm; detection time: 30.00 min; detection sensitivity: 1.0000AUFS.
Samples: docetaxel material; docetaxel/sulfobutyl-β-cyclodextrin inclusion (a, mass ratio of 1:17); docetaxel/hydroxypropyl-sulfobutyl-β-cyclodextrin inclusion (b, mass ratio of 1:17). Docetaxel materials and inclusions were divided into three portions of test samples equally and were subject to light, high temperature and high humidity acceleration tests respectively:
Samples were put in a sealed transparent container and then placed in an illumination box equipped with fluorescent light of 4500±500LX illumination intensity for 5 days. Sampling inspection analysis was conducted, and the test results were compared with the samples of 0 day.
Samples were placed in a clean sealed container at a temperature of 60° C. for 5 days. Sampling inspection analysis was conducted, and the test results were compared with the samples of 0 day.
Samples were placed in a sealed container of constant humidity at temperature of 25° C. and relative humidity of 90±5% for 5 days. Sampling inspection analysis was conducted, and the test results were compared with the samples of 0 day.

[2] = test system: advanced breast carcinoma; settings: treatment of advanced breast carcinoma; cited from earlier work
tubulin = settings: versus paclitaxel; cited from earlier work
[3] = Inclusion solubilization test; assay type: physicochemical; settings: thermodynamic from solid, docetaxel solubility in pure water, 25° C.
Procedure: Standard curve: 0.67 mg/ml docetaxel solution was prepared by dissolving docetaxel with ethanol, and diluted with pure water into […]˜20.1 μg/ml series solutions, then UV absorption value A was measured under 228 nm. A standard curve was plotted by A against concentration C (mg/ml) (A=13.881C+0.3577 (r=0.9998)).
The excessive docetaxel or inclusion in the pure water was oscillated for 72 h at 25° C.±1° C., filtered and placed still.

[4] = cited from earlier work
[5] = Docetaxel stability test in solution (HPLC assay); assay type: physicochemical; settings: normal saline solution
Procedure: as §1
Under the aforesaid HPLC chromatographic conditions, some docetaxel raw materials; docetaxel/sulfobuty-β-cyclodextrin inclusion (a) with a mass ratio of 1:17 and docetaxel/hydroxypropy-sulfobuty-β-cyclodextrin inclusion (b) with a mass ratio of 1:17 were taken and dissolved with normal saline solution, diluted for 100 times after 30 min ultrasonic wave treatment, placed still, […]

**Q.** Which “Content (%) 0 day” value ([1]; 0 day) does the source give for `CC(=O)O[C@@]12CO[C@@H]1C[C@H](O)[C@@]1(C)C(=O)[C@H](O)C3=C(C)[C@@H](OC(=O)[C@H](O)[C@@H](NC(=O)OC(C)(C)C)c4ccccc4)C[C@@](O)([C@@H](OC(=O)c4ccccc4)[C@H]21)C3(C)C` (relative stereo) [Docetaxel, [2aR-(2aα,4β,4aβ,6β,9α,(αR*,βS*),11α,12α,12aβ,12bα)]-β-[[(1,1-dimethylethoxy)carbonyl]amino]-α-hydroxyphenyl propionic acid [12b-acetoxy-12-benzoyloxy-2a,3,4,4a,5,6,9,10,11,12,12a,12b-dodecahydro-4,6,11-trihydroxyl-4-a,8,13,13-tetramethyl-5-oxo-7,11-methylene-1H-pentacyclo-ene[3,4]benzo[1,2-b]tetraoxacyclo-9-base]acetate trihydrate] here?
**A.** The value was 99.675%.

**Q.** And the “Content (%) Hight humitdity” value ([1]; 25° C., relative humidity 90±5%, 5 days)?
**A.** The value was 83.877%.

**Q.** And the “Content (%) High temperature” value ([1]; 60° C., 5 days)?
**A.** The value was 87.859%.

**Q.** What about the “Content (%) Light” value ([1]; 4500±500LX, 5 days) of the same molecule?
**A.** Its value is 90.176%.

**Q.** What about the effective ratio [2] of the same molecule?
**A.** Its effective ratio is 49%.

**Q.** What about the “inhibitory activity of tubulin depolymerization relative to paclitaxel” value (tubulin) of the same molecule?
**A.** Its value is “about 2 times”.

**Q.** What about the solubility at 72 h [3] of the same molecule?
**A.** The solubility at 72 h was 2.9 µg/mL.

**Q.** And the “incidence rate of moderate and severe hypersusceptibility” value ([4]; after injection)?
**A.** Its value is 25.9%.

**Q.** What about the “incidence rate of moderate hypersusceptibility or more” value ([4]; dosage 75 mg/m^2) of the same molecule?
**A.** Its value is 31%.

**Q.** What about the “incidence rate of moderate hypersusceptibility or more” value ([4]; dosage 100 mg/m^2) of the same molecule?
**A.** The value was 41.3%.

**Q.** What about the injection-part reaction rate ([4]; in vivo) of the same molecule?
**A.** The injection-part reaction rate was “up to 13.3%”.

**Q.** What about the “Content (%) 0 h” value ([5]; diluted 100 times, 0 h) of the same molecule?
**A.** Its value is 99.675%.

**Q.** What about the “Content (%) 5 h” value ([5]; diluted 100 times, 5 h) of the same molecule?
**A.** Its value is 99.025%.

**Q.** What about the “Content (%) 10 h” value ([5]; diluted 100 times, 10 h) of the same molecule?
**A.** Its value is 97.381%.

**Q.** And the “Content (%) 24 h” value ([5]; diluted 100 times, 24 h)?
**A.** Its value is 93.433%.

**Q.** And the “Content (%) 96 h” value ([5]; diluted 100 times, 96 h)?
**A.** Its value is 86.384%.

**Q.** And the half-life ([5]; in solution, read-out: half-life of sample decomposition in solution (converted))?
**A.** The half-life was 15.1 days.
